Data reported in patent publication US12527844B2, “Pharmaceutical formulations” (Novo Nordisk A/S, priority 2020, dated 2026).
Like-named read-outs stand apart in the source and are kept apart here.

Key:
[1] = Semaglutide solubility in the pH range 3.5-7.5 (FIG. 2); assay type: physicochemical
Method: FIG. 2 depicts semaglutide solubility in the pH range 3.5-7.5. […] Concentrations below ca. 0.6 mM indicate that no more than the analysed amount of semaglutide can be dissolved when the pH is below about 5.9.

[2] = PK after single s.c. administration via prefilled dual chamber syringe or separate injections; assay type: in vivo, LYD pigs; details: for AUC/Dose [mean ± SD]: single s.c. dose
Method: Female cross bred domestic pigs (Danish Landrace, Yorkshire and Duroc—LYD pigs), having a body weight of approximately 80-100 kg, were used for exploring PK profiles.
A full plasma concentration-time profile was obtained from each animal, from pre-dosing to 18 days post dosing.
Plasma was analysed by means of Luminescence Oxygen Channelling Immunoassay (LOCI) and Liquid Chromatography-Mass Spectrometry (LCMS) for semaglutide and cagrilintide, respectively. Non-compartmental pharmacokinetic analysis, using individual plasma concentration-time profiles, was performed.

[3] = dual chamber syringe versus separate injections

- solubility ([1]; pH above about 5.9, read-out: maximum solubility): > 600 µM
- solubility ([1]; pH below about 5.9, read-out: solubility (dissolved concentration)): < 600 µM
- AUC/Dose % increase (Co-dosing vs. dual-chamber syringe) [2, 3]: ~13%
- Cmax % increase (Co-dosing vs. dual-chamber syringe) [2, 3]: ~22%
- t½ % increase (Co-dosing vs. dual-chamber syringe) [2, 3]: ~0%
- AUC/Dose [mean ± SD] ([2]; group Dual chamber syringe 2.4/2.4): 1560 ± 229 kg·h/L
- AUC/Dose [mean ± SD] ([2]; group Mono (separate injections per title)): 1380 ± 78.1 kg·h/L
Compound: CC[C@H](C)[C@H](NC(=O)[C@H](Cc1ccccc1)NC(=O)[C@H](CCC(=O)O)NC(=O)[C@H](CCCCNC(=O)COCCOCCNC(=O)COCCOCCNC(=O)CC[C@H](NC(=O)CCCCCCCCCCCCCCCCC(=O)O)C(=O)O)NC(=O)[C@H](C)NC(=O)[C@H](C)NC(=O)[C@H](CCC(N)=O)NC(=O)CNC(=O)[C@H](CCC(=O)O)NC(=O)[C@H](CC(C)C)NC(=O)[C@H](Cc1ccc(O)cc1)NC(=O)[C@H](CO)NC(=O)[C@H](CO)NC(=O)[C@@H](NC(=O)[C@H](CC(=O)O)NC(=O)[C@H](CO)NC(=O)[C@@H](NC(=O)[C@H](Cc1ccccc1)NC(=O)[C@@H](NC(=O)CNC(=O)[C@H](CCC(=O)O)NC(=O)C(C)(C)NC(=O)[C@@H](N)Cc1cnc[nH]1)[C@@H](C)O)[C@@H](C)O)C(C)C)C(=O)N[C@@H](C)C(=O)N[C@@H](Cc1c[nH]c2ccccc12)C(=O)N[C@@H](CC(C)C)C(=O)N[C@H](C(=O)N[C@@H](CCCNC(=N)N)C(=O)NCC(=O)N[C@@H](CCCNC(=N)N)C(=O)NCC(=O)O)C(C)C [semaglutide, N^6,26-{18-[N-(17-carboxyheptadecanoyl)-L-γ-glutamyl]-10-oxo-3,6,12,15-tetraoxa-9,18-diazaoctadecanoyl}-[8-(2-amino-2-propanoic acid),34-L-arginine]human glucagon-like peptide 1(7-37)]
